The test system of series [1] is nitrosamine localization. Description: Inhibition of selective localization of nitrosamines (delocalization), general statement. Format: in vivo. The text has this:
The alcohols which are operable according to the invention include alcohols having two or more carbons. However, it is preferable to use alcohols having alkyl groups of at least three carbons or greater. The alkyl groups may have a straight-chain or branched chain structure. Moreover, the alkyl groups may have a cyclic or acyclic structure.

The test system of another series is bronchial epithelium. Description: Whole-body autoradiography of [14C] NNN after inhalation of cyclohexanol vapor. It counts as in vivo, C57BL/6J mouse. Conditions: 5 min inhalation. The protocol: The mouse was kept in the closed beaker for about five minutes as the bottom of the beaker was maintained at 50° C. in a water bath. […] Handbook of Chemistry and Physics (1979) at D-203 to D-217, which is incorporated herein in its entirety.
One hour later, the mouse was anesthetized lightly by ether and frozen by immersion in dry ice/hexane. […] Control experiments were conducted for comparison purposes and radioactivity was detected in the respiratory epithelium in the controls.
Example 2 was duplicated, except that the mouse was kept in the closed beaker for five minutes as the bottom of the beaker was maintained at 20° C. in a water bath. […] After injection as in Example 2, the mouse was processed in the same manner as in Example 2.

Another series relates to rats. The conditions noted are these: cited from earlier work.
The test system of the next series is rodents. Conditions: cited from earlier work; for carcinogenicity: N-nitroso derivatives of tobacco alkaloids.
Another series relates to F-344 rats. The conditions noted are these: NNN in drinking water; cited from earlier work.
For another series, the system named is tissues of the body. Conditions: [14C] NNN, adult male C57BL/6J mice; cited from earlier work.
Another series relates to F-344 rat esophagus. Conditions: in contrast to other tissues; cited from earlier work.
Series [2] has as its system malignant growth and tumor development. Conditions: cited from earlier work.
In a further series the test system is epithelial membranes. Conditions: cited from earlier work.
Series [3] in a line: Whole-body autoradiography: localization of [14C] NNN radioactivity in bronchial epithelium after oral alcohol pretreatment. It counts as in vivo, male C57BL/6J mice. Here is the method:
(§1) One hour later, the mice were anesthetized lightly with ether and frozen by immersion in dry ice/hexane. Twenty u-thick whole-body sagittal sections of the frozen mice were taken onto Scotch tape and were then processed for whole-body autoradiography by known methods. See W. Waddell et al, Drug Fate and Metabolism: Methods and Techniques. E.R. Garrett and J.L. Hirtz, Eds. […] Photometric density in areas of the developed autoradiographs was measured with an ADG Instruments photometer and a photocell with an aperture of three mm lying on the easel of a photographic enlarger. The X-ray film was placed in the enlarger and raised to produce a magnification of thirty-five times on the easel.
(§2) NNN. […] (Twenty minutes is the average time it takes for alcohols introduced by oral intubation in mice to reach the peak blood level.)
(§3) The number within each bar thereof represents the dose in g/kg of the alcohol which was administered orally twenty minutes before the [^14 C] NNN was given intravenously. The mice were frozen one hour after receiving the [^14 C] NNN. The means for each mouse were from fifteen measurements on random areas of that site (five absorbancies on each of three autoradiographs) after setting blood in each on zero. The control value is the mean from six mice; the n-butanol at one g/kg is from two mice; and the other means are from one mouse.

The test system of a further series is salivary duct epithelium. Conditions: oral 20 min before i.v. [14C] NNN; ethanol 1 and 5 g/Kg, n-butanol 0.2 and 1 g/Kg; 1 h. The protocol:
as §1, §2, §3

The next series has as its system liver. The conditions noted are these: oral 20 min before i.v. [14C] NNN; ethanol 1 and 5 g/Kg, n- and t-butanol 0.2 and 1 g/Kg; 1 h. The protocol:
as §1, §2, §3

The subject of a further series is adult human. Conditions: per kg body weight; cited from earlier work.
Series [4] has as its system nitrosamine localization. Description: Whole-body autoradiography of [14C] NNN after intraperitoneal imidazole. It counts as in vivo, male C57BL/6J mouse. Conditions: 20 min before i.v. [14C] NNN, vs control mouse. Here is the method: An adult male C57BL/6J mouse was injected intraperitoneally with 0.02 ml/g body weight of a solution of imidazole in water. The imidazole solution concentration was such that 0.05 g of imidazole was delivered per kg of body weight. […] See Example 1.
Example 4 was duplicated except that the adult mouse was injected intraperitoneally with 0.02 ml/g body weight of a solution of imidazole in water, wherein the solution concentration was such that 0.25 g of imidazole was delivered per kg of body weight.

For the compound `c1cn[nH]c1` [pyrazole], in the series with nitrosamine localization [1], the delocalization of nitrosamines result is reported as “found to delocalize nitrosamines”. Same read-out and setting: then `S=C=NCc1ccccc1` [benzylisothiocyanate], with “found to delocalize nitrosamines”. On to `OC1CCCCC1` [cyclohexanol], for which the “radioactivity in bronchial epithelium” value with bronchial epithelium (20° C., 0.001% cyclohexanol in air) was “No radioactivity was detected in any part of the bronchial epithelium”; in the series on bronchial epithelium (50° C., 0.01% cyclohexanol in air), “No radioactivity was detected in any part of the bronchial epithelium”. For the compound `[Cl-].[Na+]` [sodium chloride, reference compound], the LD50 entry with rats (acute oral, rats) was “about 3.75 g/Kg”. In the case of `O=NN1CCCC1c1cccnc1` (stereo not shown) [NNN, N'-Nitrosonoronicotine], the carcinogenicity entry in the series with rodents is on record as “powerful environmental carcinogens”. Further, the “sites of tumor formation” value in the series on rodents (in vivo) was “typically induces tumor formation at five sites, namely the nasal cavity, salivary duct, esophagus, bronchial epithelium and the liver”. Further, in the series on rodents (rodents), the “carcinogenesis in olfactory epithelium, lung, salivary glands” value is given as “known to induce carcinogenesis in the olfactory epithelium, lung, salivary glands”. Further, the esophageal tumors result in the series on F-344 rats is reported as “esophageal tumors have been induced”. Further, in the series with tissues of the body, the “retention of radioactivity versus sites of tumor formation” value is given as “striking correlation of the retention of radioactivity with the previously reported sites of tumor formation”. Also, the “hydroxylation at the a-carbon of NNN adjacent to the pyridine ring” value in the series on F-344 rat esophagus was “preferentially catalyzes hydroxylation at the a-carbon of NNN adjacent to the pyridine ring”. Consider `[Se]` [Selenium], for which the tumor development entry in series [2] is given as “inhibit tumor development”. Regarding Vitamin E, the “formation of nitrosamines on epithelial membranes” value with epithelial membranes is given as “prevent the formation of nitrosamines on epithelial membranes”.

As for `C[S+](C)[O-]` [dimethylsulfoxide (DMSO), dimethylsulfoxide], in the series with nitrosamine localization [1], the delocalization of nitrosamines result is recorded as “found to delocalize nitrosamines”. With `CN(CCCC(=O)c1cccnc1)N=O` [NNK, 4-N-methyl-N-nitrosamino)-1-(3-pyridyo-1-butano], in the series with rodents, the carcinogenicity entry is recorded as “powerful environmental carcinogens”. For `CCO` [ethanol], the “localization of radioactivity in bronchial epithelium” value in series [3] (oral 20 min before i.v. [14C] NNN, ethanol 1 and 5 g/Kg, n-butanol 0.2 and 1 g/Kg, 1 h) is on record as “reduced by pretreatment”. In addition, the “localization of radioactivity in salivary duct epithelium” value with salivary duct epithelium is “reduced by pretreatment”. The “localization of radioactivity in periportal and central areas of the liver” value with liver is “reduced by pretreatment”. For the compound `CN1CCCC1c1cccnc1` (stereo not shown) [nicotine], in the series with adult human, the “estimated acutely fatal oral dose” value was 1 mg/kg.

Take Vitamin A: the malignant growth entry in series [2] is given as “suppress malignant growth”.

On to `CCCCC(CC)CO` (stereo not shown) [2-ethyl hexanol], for which the “Acute Oral LD50 rats” value in the series with rats (rat, in vivo, po) was 3200 to 7100 mg/kg. On to `CC1=C(/C=C/C(C)=C/C=C/C(C)=C/CO)C(C)(C)CCC1` [retinol, reference compound], for which the “inhibition of nitrosamine localization” value with nitrosamine localization [1] was “does not inhibit nitrosamine localization”.

With `O=C1O[C@H]([C@@H](O)CO)C(O)=C1O` [Vitamin C], the “formation of nitrosamines on epithelial membranes” value in the series with epithelial membranes was “prevent the formation of nitrosamines on epithelial membranes”. Take `CC(C)(C)O` [t-butanol]: the “inhibition in bronchial epithelium (FIG. 1), ranking” value in series [3] (from inspection of FIG. 1, oral pretreatment) was “greatest inhibition”. Also, the “localization of [14C] NNN in bronchial epithelium” value in series [3] (high dosage (t-butanol 1 g/Kg oral), 20 min before i.v. [14C] NNN) is given as “almost completely abolished”. Turning to `c1c[nH]cn1` [imidazole], the nitrosamine delocalization entry in the series on nitrosamine localization [4] (0.05 g/kg imidazole i.p.) is recorded as “Significant nitrosamine delocalization”. Moreover, in the series on nitrosamine localization [4] (0.25 g/kg imidazole i.p.), the delocalization of nitrosamine result is listed as “significant delocalization of nitrosamine”. In addition, the delocalization of nitrosamines entry with nitrosamine localization [1] is listed as “found to delocalize nitrosamines”.
